In patent US20130109682A1, “CYCLIC ETHER COMPOUNDS USEFUL AS KINASE INHIBITORS” (NOVARTIS AG, priority 2010, published 2013):

What was measured:
FGFR3 kinase = FGFR3 kinase (Homo sapiens, UniProt P22607); assay: FGFR3 kinase inhibition assay (LanthaScreen TR-FRET); format: biochemical
Procedure: FGFR3 Kinase Inhibition Assay
LanthaScreen™ is the detection of Time-Resolved Fluorescence Resonance Energy Transfer (TR-FRET) using lanthanide chelates to measure interactions between various binding partners. The application of TR-FRET to assay kinase activity was first described by Mathis (1995). A TR-FRET assay was used to measure FGFR3 kinase inhibitory activity. The assay panel was run on a Biomek FX liquid handling workstations. To the assay plates containing […] compound or control solutions, 4.5 μL of buffer A (50 mM TRIS-HCl pH 7.4, 2 mM DTT, 0.02% Tween 20, 0.02 mM Na3VO4, H2O nanpure) including a generic concentration of ATP (2 μM f.c.) was added per well, followed by 4.5 μL of buffer B (4 uM ATP in Buffer A) including a generic concentration of polyEAY (50 nM f.c.), FGFR3 kinase, and divalent cations. Final concentration of kinase and cations were: [FGFR3 kinase]=0.20 nM, [Mg]=3 mM, [Mn]=3 mM. After 1 hour of incubation the kinase reactions were stopped by the addition of 4.5 μL of stop solution D (50 mM EDTA, 20 mM TRIS-HCl pH 7.4, 0.04% NP-40) immediately followed by 4.5 μL of buffer A (50 mM TRIS-HCl pH 7.4, 2 mM DTT, 0.02% Tween 20, 0.02 mM Na3VO4, H2O nanpure) including the Tb-labeled P-20 antibody to give a total detection volume of 18 μL. After an incubation time of 45 min in the dark, the plates were transferred into the Pherastar fluorescence reader for counting. The effect of compound on the enzymatic activity was obtained from the linear progress curves and determined from one reading (end point measurement).

PIM2 = PIM2 (Homo sapiens, UniProt Q9P1W9); assay: Pim 2 AlphaScreen assay (high ATP); format: biochemical; settings: read-out: Pim2 IC50
PIM2, sequence (Q9P1W9 whole entry): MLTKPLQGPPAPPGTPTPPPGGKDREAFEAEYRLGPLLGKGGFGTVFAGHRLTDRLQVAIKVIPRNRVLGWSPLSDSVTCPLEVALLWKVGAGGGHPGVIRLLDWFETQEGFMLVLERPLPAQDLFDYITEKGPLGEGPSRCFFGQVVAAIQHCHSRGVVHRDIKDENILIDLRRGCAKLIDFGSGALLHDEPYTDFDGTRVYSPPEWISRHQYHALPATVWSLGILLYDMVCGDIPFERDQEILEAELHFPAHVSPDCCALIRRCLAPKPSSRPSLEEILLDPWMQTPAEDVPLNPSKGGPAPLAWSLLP
In short: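 IC50 values rest on detection of phosphorylated Bad peptide: after a ~2 h kinase reaction, an EDTA stop buffer containing anti-phospho Ser/Thr antibody, Protein A and streptavidin AlphaScreen beads was added and read after overnight dark incubation. ATP was high (11-125× Km), with 2.5% DMSO in pH 7.5 Hepes buffer containing MgCl2, BSA, Tween-20 and DTT.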

FGFR3 kinase, sequence (P22607 23-806): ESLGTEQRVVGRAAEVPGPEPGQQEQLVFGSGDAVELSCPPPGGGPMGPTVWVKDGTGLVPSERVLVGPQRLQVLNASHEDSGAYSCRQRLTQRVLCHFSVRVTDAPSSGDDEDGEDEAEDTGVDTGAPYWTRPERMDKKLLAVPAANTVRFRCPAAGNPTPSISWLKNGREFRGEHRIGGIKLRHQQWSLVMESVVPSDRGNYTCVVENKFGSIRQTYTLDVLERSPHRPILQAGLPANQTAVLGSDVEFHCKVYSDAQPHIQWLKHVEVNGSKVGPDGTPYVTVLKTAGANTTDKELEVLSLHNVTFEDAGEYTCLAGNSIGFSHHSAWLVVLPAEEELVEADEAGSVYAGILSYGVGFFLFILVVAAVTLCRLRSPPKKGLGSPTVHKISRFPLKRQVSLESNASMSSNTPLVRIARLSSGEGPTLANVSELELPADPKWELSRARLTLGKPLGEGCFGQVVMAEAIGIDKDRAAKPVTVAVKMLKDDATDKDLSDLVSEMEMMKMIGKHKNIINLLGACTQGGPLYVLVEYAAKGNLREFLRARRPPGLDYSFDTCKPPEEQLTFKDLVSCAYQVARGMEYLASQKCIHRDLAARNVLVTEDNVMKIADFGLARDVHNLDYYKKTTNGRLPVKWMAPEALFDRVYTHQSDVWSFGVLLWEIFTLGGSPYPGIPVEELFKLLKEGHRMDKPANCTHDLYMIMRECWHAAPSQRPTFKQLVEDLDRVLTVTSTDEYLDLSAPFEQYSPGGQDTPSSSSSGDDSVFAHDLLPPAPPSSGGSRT

| IC50 (FGFR3 kinase) [nM] | IC50 (PIM2) [nM] | SMILES |
| --- | --- | --- |
| 480 | > 25000 | Nc1ncc(-c2ccccc2)nc1C(=O)Nc1cnccc1[C@H]1C[C@@H](O)[C@H](O)[C@@H](CO)O1 [Example 341, 3-amino-N-(4-((2R,4R,5S,6R)-4,5-dihydroxy-6-(hydroxymethyl)tetrahydro-2H-pyran-2-yl)pyridin-3-yl)-6-phenylpyrazine-2-carboxamide] |
| 180 | 62.7 | Nc1ncc(-c2ccccc2)nc1C(=O)Nc1cnccc1[C@H]1C[C@@H](N)[C@H](O)[C@@H](C2CC2)O1 [Example 346, 3-amino-N-(4-((2R,4R,5S,6R)-4-amino-6-cyclopropyl-5-hydroxytetrahydro-2H-pyran-2-yl)pyridin-3-yl)-6-phenylpyrazine-2-carboxamide] |
| 6900 | 2740 | Nc1ncc(-c2ccccc2)nc1C(=O)Nc1cnccc1[C@@H]1C[C@H](N)[C@@H](O)[C@H](C2CC2)O1 [Example 349, 3-amino-N-(4-((2S,4S,5R,6S)-4-amino-6-cyclopropyl-5-hydroxytetrahydro-2H-pyran-2-yl)pyridin-3-yl)-6-phenylpyrazine-2-carboxamide] |
| 8800 | 8020 | C[C@@]1(O)[C@@H](N)C[C@@H](c2ccncc2NC(=O)c2nc(-c3ccccc3)cnc2N)O[C@H]1C1CC1 [Example 347, 3-amino-N-(4-((2S,4S,5R,6S)-4-amino-6-cyclopropyl-5-hydroxy-5-methyltetrahydro-2H-pyran-2-yl)pyridin-3-yl)-6-phenylpyrazine-2-carboxamide] |
| 35 | 49.1 | CC[C@H]1O[C@@H](c2ccncc2NC(=O)c2nc(-c3ccccc3)cnc2N)C[C@@H](N)[C@@H]1O [Example 343, 3-amino-N-(4-((2R,4R,5S,6R)-4-amino-6-ethyl-5-hydroxytetrahydro-2H-pyran-2-yl)pyridin-3-yl)-6-phenylpyrazine-2-carboxamide] |
| > 10000 | 7810 | CC[C@@H]1O[C@H](c2ccncc2NC(=O)c2nc(-c3ccccc3)cnc2N)C[C@H](N)[C@@]1(C)O [Example 345, 3-amino-N-(4-((2S,4S,5R,6S)-4-amino-6-ethyl-5-hydroxy-5-methyltetrahydro-2H-pyran-2-yl)pyridin-3-yl)-6-phenylpyrazine-2-carboxamide] |
| > 10000 | 8750 | CC(C)(C)[C@@H]1O[C@H](c2ccncc2NC(=O)c2nc(-c3ccccc3)cnc2N)C[C@H](N)[C@H]1O [Example 355, 3-amino-N-(4-((2S,4S,5R,6S)-4-amino-6-tert-butyl-5-hydroxytetrahydro-2H-pyran-2-yl)pyridin-3-yl)-6-phenylpyrazine-2-carboxamide] |
| 220 | 28.1 | CC(C)[C@H]1O[C@@H](c2ccncc2NC(=O)c2nc(-c3ccccc3)cnc2N)C[C@@H](N)[C@@H]1O [Example 356, 3-amino-N-(4-((2R,4R,5S,6R)-4-amino-5-hydroxy-6-isopropyltetrahydro-2H-pyran-2-yl)pyridin-3-yl)-6-phenylpyrazine-2-carboxamide] |
| 440 | 106 | C[C@]1(O)[C@H](N)C[C@H](c2ccncc2NC(=O)c2nc(-c3ccccc3)cnc2N)O[C@@H]1C1CC1 [Example 344, 3-amino-N-(4-((2R,4R,5S,6R)-4-amino-6-cyclopropyl-5-hydroxy-5-methyltetrahydro-2H-pyran-2-yl)pyridin-3-yl)-6-phenylpyrazine-2-carboxamide] |
| 1600 | 1370 | CC[C@@H]1O[C@H](c2ccncc2NC(=O)c2nc(-c3ccccc3)cnc2N)C[C@H](N)[C@H]1O [Example 342, 3-amino-N-(4-((2S,4S,5R,6S)-4-amino-6-ethyl-5-hydroxytetrahydro-2H-pyran-2-yl)pyridin-3-yl)-6-phenylpyrazine-2-carboxamide] |

The next lines start with the molecule.

| SMILES | IC50 (FGFR3 kinase) [nM] | IC50 (PIM2) [nM] |
| --- | --- | --- |
| CC[C@]1(O)[C@H](C)O[C@H](c2ccncc2NC(=O)c2nc(-c3ccccc3)cnc2N)C[C@@H]1N [Example 189, 3-amino-N-(4-((2S,4S,5R,6S)-4-amino-5-ethyl-5-hydroxy-6-methyltetrahydro-2H-pyran-2-yl)pyridin-3-yl)-6-phenylpyrazine-2-carboxamide] | 7400 | 25000 |
| CC(C)[C@@H]1C[C@H](N)C[C@H](c2ccncc2NC(=O)c2nc(-c3ccccc3)cnc2N)O1 [Example 291, 3-amino-N-(4-((2R,4S,6S)-4-amino-6-isopropyltetrahydro-2H-pyran-2-yl)pyridin-3-yl)-6-phenylpyrazine-2-carboxamide] | 1600 | 19.3 |
| CC(C)(C)[C@@H]1O[C@H](c2ccncc2NC(=O)c2nc(-c3ccccc3)cnc2N)C[C@@H](N)[C@H]1O [Example 227, 3-amino-N-(4-((2S,4R,5R,6S)-4-amino-6-tert-butyl-5-hydroxytetrahydro-2H-pyran-2-yl)pyridin-3-yl)-6-phenylpyrazine-2-carboxamide] | 2400 | 549 |
| C[C@@H]1O[C@H](c2ccncc2NC(=O)c2nc(-c3ccccc3)cnc2N)C[C@H](N)[C@@]1(C)O [Example 229, 3-amino-N-(4-((2S,4S,5R,6S)-4-amino-5-hydroxy-5,6-dimethyltetrahydro-2H-pyran-2-yl)pyridin-3-yl)-6-phenylpyrazine-2-carboxamide] | 3400 | 3310 |
| Nc1ncc(-c2ccccc2)nc1C(=O)Nc1cnccc1[C@@H]1C[C@H](N)[C@]2(O)CCC[C@@H]2O1 [Example 185, 3-amino-N-(4-((2S,4S,4aR,7aS)-4-amino-4a-hydroxyoctahydrocyclopenta[b]pyran-2-yl)pyridin-3-yl)-6-phenylpyrazine-2-carboxamide] | > 10000 | 6430 |
| CC(C)[C@@H]1O[C@H](c2ccncc2NC(=O)c2nc(-c3ccccc3)cnc2N)C[C@H](N)[C@H]1O [Example 240, 3-amino-N-(4-((2S,4S,5R,6S)-4-amino-5-hydroxy-6-isopropyltetrahydro-2H-pyran-2-yl)pyridin-3-yl)-6-phenylpyrazine-2-carboxamide] | > 10000 | 2770 |
| CC(C)(C)[C@H]1O[C@@H](c2ccncc2NC(=O)c2nc(-c3ccccc3)cnc2N)C[C@H](N)[C@@H]1O [Example 286, 3-amino-N-(4-((2R,4S,5S,6R)-4-amino-6-tert-butyl-5-hydroxytetrahydro-2H-pyran-2-yl)pyridin-3-yl)-6-phenylpyrazine-2-carboxamide] | 710 | 64.9 |
| CC[C@]1(O)[C@H](N)C[C@H](c2ccncc2NC(=O)c2nc(-c3ccccc3)cnc2N)O[C@@H]1C [Example 187, 3-amino-N-(4-((2R,4R,5S,6R)-4-amino-5-ethyl-5-hydroxy-6-methyltetrahydro-2H-pyran-2-yl)pyridin-3-yl)-6-phenylpyrazine-2-carboxamide] | 830 | 86.3 |
| C[C@H]1O[C@@H](c2ccncc2NC(=O)c2nc(-c3ccccc3)cnc2N)C[C@@H](N)[C@]1(C)O [Example 228, 3-amino-N-(4-((2R,4R,5S,6R)-4-amino-5-hydroxy-5,6-dimethyltetrahydro-2H-pyran-2-yl)pyridin-3-yl)-6-phenylpyrazine-2-carboxamide] | 320 | 120 |
